Key:
[1] = plasma concentration / oral absorption in rats; format: in vivo, rat
Experimental: This is supported by the observations of plasma concentrations of 3 to 7 μg/ml one hour after oral administration of III, 50 to 300 mg/kg.

[2] = test system: IgE-mediated passive cutaneous anaphylaxis (PCA); experiment: PCA test, intravenous, comparison with Intal, IgE-mediated permeability; format: in vivo, rat
Experimental: (§1) In the PCA test, normal animals are injected intradermally (i.d.) with antibodies contained in serum obtained from actively sensitized animals. The animals are then challenged intravenously with antigen mixed with a dye such as Evans' Blue. The increased capillary permeability caused by the antigen-antibody reaction causes the dye to leak from the site of the antibody injection. The test animals are then asphyxiated and the intensity of the reaction determined by measuring the diameter and intensity of the blue coloration on the inner surface of the animals' skin.
The ability of agents to interfere with PCA reactions is measured in male Charles River Wistar rats, 170-210 g. Reaginic antiserum, rich in IgE antibodies, is prepared according to Petillo et al., Int. Arch. […] Hyperimmune antiserum rich in IgG antibodies to hen egg albumin is prepared according to Orange et al., J. Exptl. […] Forty-eight hours prior to antigen challenge, the reaginic antiserum is injected intradermally (i.d.) into the shaved skin of a normal rat's back; 5 hours before challenge the hyperimmune antisera is similarly injected. […] The difference is expressed as percent blockage due to the compound employed.

[3] = test system: ulcerogenic effects of aspirin; experiment: aspirin-induced gastric ulcer; format: in vivo; settings: po; aspirin 100 mg/kg p.o.
Experimental: Compound III also protects against the ulcerogenic effects of aspirin, 100 mg/kg p.o. where dose-related effects are seen over the dose range of 10 to 1000 μg/kg, p.o. with an ED50 of 100 μg/kg. Compound III is also active in a phenylbutazone gastric ulcer model where an oral ED50 of 200 μg/kg is observed. […] "Cytoprotective," a term coined recently to describe the antiulcer effects of prostaglandins that are independent of antisecretory activity, [Robert, Advances in Prostaglandin and Thromboxane Research 2, 507 (1976); Miller et al., Gut 20, 75 (1979); Robert et al., Gastroenterology 72, 1121 (1977).] aptly characterizes the effects of compound III.

urinary volume output = experiment: diuretic activity; format: in vivo; settings: oral
Experimental: When given orally, it caused a dose-related increase in urinary volume output at doses in the range 0.3 to 5 mg/kg. […] These findings indicate that the dose-response range for diuretic activity is considerably higher than that for antiulcer effects and just below that for antiallergy effects (1 to 10 mg/kg).

rats = experiment: toleration study in rats, 10 days oral; format: in vivo, rat
Experimental: Rats were given III orally by gavage at doses of 50, 150 and 300 mg/kg/day for 10 days.

[4] = stability (solid state, in admixture and in solution); format: physicochemical; settings: pure solid state, with standard pharmaceutical diluents
dogs = experiment: toleration study in dogs, 7 days oral; format: in vivo, dog
Experimental: In toleration studies, III was given orally by gavage to dogs for a period of seven days at doses of 50, 150 and 300 mg/kg/day.

isolated rat monocytes = experiment: ionophore-stimulated synthesis and release of SRS in isolated monocytes; format: cell-based
anticholinergic effects = experiment: anticholinergic effects
[5] = test system: passive cutaneous anaphylaxis (PCA); experiment: PCA test, oral activity in general; format: in vivo, rat
Experimental: as §1, with “The antiallergy property of the compounds of this invention is evaluated by the passive cutaneous anaphylaxis (PCA) test (Ovary, J. Immun., 81, 355, 1958). In” for “In”
The ability of agents to interfere with PCA reactions is measured in male Charles River Wistar rats, 170-210 g. Reaginic antiserum, rich in IgE antibodies, is prepared according to Petillo et al., Int. Arch. Allergy, 44, 309 (1973). Hyperimmune antiserum rich in IgG antibodies to hen egg albumin is prepared according to Orange et al., J. Exptl. Med., 127, 767 (1968). Forty-eight hours prior to antigen challenge, the reaginic antiserum is injected intradermally (i.d.) into the shaved skin of a normal rat's back; 5 hours before challenge the hyperimmune antisera is similarly injected. […] The difference is expressed as percent blockage due to the compound employed.

anesthetized dogs = experiment: cardiovascular effects in anesthetized dogs; format: in vivo, dog; settings: cumulative doses of 5 and 15 mg/kg, i.v.
[6] = oral gavage 50, 150 and 300 mg/kg/day
[7] = oral gavage 50, 150 and 300 mg/kg/day, seven days

SMILES: O=C(Nc1nnn[nH]1)c1cnc2sc3c(n2c1=O)CCCC3 [compound III, N-(5-tetrazolyl)-1-oxo-1H-cyclohexenothiazolo[3,2-a]pyrimidine-2-carboxamide]
- concentration at 1 h ([1]; plasma, rat, one hour, oral 50 to 300 mg/kg, read-out: plasma concentration one hour after oral administration, rat): 3000 to 7000 ng/mL
- oral absorption, rat ([1]; ratio of comparably effective oral and intravenous doses in rat PCA test): good oral absorption
- intravenous activity in the PCA test, dose range ([2]; intravenous): 0.03 to 1.0 mg/kg
- changes in cutaneous permeability induced by IgE-mediated PCA ([2]; rat, in vivo): blocks the changes in cutaneous permeability
- ED50 [3]: 0.1 mg/kg
- sodium and potassium excretion (urinary volume output): an increase in sodium and potassium excretion was observed
- urinary concentrations of sodium and potassium ions (urinary volume output): unchanged
- maximum effect on urinary volume output (urinary volume output; 0.3 to 5 mg/kg): twofold increase in volume output
- serum glutamic-pyruvic transaminase (rats; highest dose (300 mg/kg/day)): slight increase
- changes in clinical chemistry (other than serum glutamic-pyruvic transaminase) (rats; [6]): no changes in clinical chemistry were observed
- pathological changes on gross and microscopic evaluation of liver, kidney, heart and lung (rats; [6]): no resultant pathological changes
- stability [4]: exceptionally good stability
- stability ([4]; listed as formula III): highly stable
- emetic effect when administered by capsule after meals (dogs; capsule after, rather than before, meals): could be eliminated
- emesis (dogs; [7]): observed at all doses
- gross pathological changes (dogs; [7]): No gross pathological changes were observed
- microscopic examination of liver, kidney, heart and lung (dogs; [7]): did not reveal any changes
- synthesis and release of SRS in isolated rat monocytes, stimulated by an ionophore (isolated rat monocytes): is not inhibited
- anticholinergic effects (anticholinergic effects): no significant anticholinergic effects
- oral activity, in words [5]: excellent oral activity
- blood pressure (anesthetized dogs): transient hypotension
- heart rate (anesthetized dogs): variable changes in heart rate
- pressor responses to epinephrine and bilateral carotid occlusion (anesthetized dogs): diminished slightly

— patent publication US4414388A, “1-Oxo-1H-thiazolo[3,2-a]pyrimidine-2-carboxamides” (Pfizer Inc., priority 1981, dated 1983)
